Common to all, as to type: cell-based, human
Assay [1] relates to platelets (GPVI-mediated platelet reactivity). The assay can be described thus: Platelet-antibiotic co-incubation in whole blood, P-selectin exposure by flow cytometry. The settings on record: whole blood of healthy donors, antibiotic at therapeutic peak plasma level, 2 h at 37° C., resting and CRP-XL [0.01 μg/mL] stimulated platelets. How it is done: Antibiotics were added to whole blood of healthy donors. Incubation was performed for 2 h at 37° C. P-selectin exposure was determined subsequently by flow cytometry on resting (A) and CRP-XL [0.01 μg/mL] stimulated platelets (B). The following drugs were used: piperacillin/tazobactam [P/T=298 μg/mL; 4 μg/mL], vancomycin [V=60 μg/mL], metronidazole [M=25 μg/mL], ciprofloxacin [Cx=4.56 μg/mL].
Whole blood was diluted 1:10 in modified HEPES-buffered Tyrode's solution (NaCl 137 mM, NaHCO312 mM, HEPES 5 mM, KCl 2.7 mM, MgCl2 1 mM, Na2HPO4 0.43 mM, glucose 0.1%, BSA 0.36%). Flow cytometry was conducted using a FACSCelesta™ flow cytometer (Becton Dickinson, Franklin Lakes, NJ, USA). Prior to reactivity measurement, platelets were incubated with respective agonists at indicated concentrations for five minutes. Staining of reticulated platelets was performed using thiazole orange (Sigma Aldrich, St. Louis, MO, USA) for 60 min at room temperature protected from light. After antibody addition samples rested for 15 min in the dark until the reaction was stopped with addition of 1.5 mL FACS-Flow sample buffer (Becton Dickinson).
As all sepsis patients received antibiotic therapy, the present inventors next evaluated whether antimicrobial drugs could reduce GPVI/CLEC-2 reactivity.
A general note: In flow cytometry, cells or beads pass a laser one at a time.

In assay [2] the test system is washed platelets of sepsis patients. The assay can be described thus: Light transmission aggregometry with washed platelets. Particulars: for aggregation at last visit, discharged patients vs patients who died: last available values (discharge/death). How it is done:
Platelet reactivity assays are shown at the following time points: I: admission day, II: day 5-7 and III: day of ICU discharge. (S)=sepsis patient; (HC)=healthy control. (A-H) Platelet integrin activation (A, C, E, G) and P-selectin exposure (B, D, F, H) were measured upon stimulation with CRP-XL [0.01 μg/mL](A-D), Convulxin [0.01 μg/ml] (E, F) and ADP [5 μM] (G, H) in whole blood by flow cytometry. Representative curves upon CRP-XL stimulation at time point I are shown in A and B. (I-N) Light transmission aggregometry was performed using washed platelets [500 000 1/μL]. (I-N) Maximum aggregation is depicted upon stimulation with CRP-XL [0.1 μg/mL] […] (K, L) and TRAP-6 [10 μM] (M, N). Representative curves are shown in FIG. I, K, M. […] Graphs show median±IQR. Differences were analyzed by Kruskal-Wallis test (A-N). n.s. non-significant, *p>0.05, **p>0.01, ***p>0.001, ****p>0.0001
Platelet reactivity of healthy controls (HC) and patients with sepsis (S) is depicted upon stimulation with CRP-XL standard dose [0.1 μg/mL in aggregometry; 0.01 μg/mL in flow cytometry] and CRP-XL high dose (CRP-XLhi) [1 μg/mL] (A-B) Platelet activation due to integrin activation indicated through PAC-1 binding (A) or P-selectin exposure (B) was assessed in whole blood by flow cytometry. (C-D) Light transmission aggregometry was performed using washed platelets [500 000 1/μL]. Samples were measured for 5 minutes. Representative curves are shown in C. (D-E) Platelets were lysed after 5 minutes of CRP-XL stimulation or resting conditions. Staining was performed with phospho-tyrosine antibody 4g10. 72 kDa band intensity was set in relation to a housekeeping protein in arbitrary units (AU). All graphs show median f IQR.
(A) Light transmission aggregometry was performed using washed platelets [500 000 1/μL]. Maximum aggregation is depicted upon stimulation with CRP-XL (C) [0.1 μg/mL] and TRAP-6 [5 μM](T). (B) mean platelet volume. (C) Reticulated platelets indicated as thiazole orange (TO) positive fraction were assessed by flow cytometry. (D) GPVI-ectodomain plasma-levels measured by ELISA. (E) Platelet count. (F) SOFA-Score. All graphs show median f IQR. Differences were analyzed using Kolmogorov-Smirnov test. n.s. non-significant, *p>0.05, **p>0.01,
After centrifugation of whole blood at 152 g for 20 min, platelet rich plasma (PRP) was separated and incubated in acetylsalicylic acid (ASS) for 30 min (final concentration 2 μM). Prostaglandine E1 (1 μM) and apyrase (2 U/mL) were added and platelets were washed with modified HEPES-buffered Tyrode's solution once (1000 g, 10 min). PPP was cryopreserved for further investigation. Afterwards platelet count was adjusted to 500 000 1/μL through resuspension in re-calcified Hepes buffered Tyrode's solution (CaCl2) 2 mM). Light transmission aggregometry was performed using an APACT 4S (LABiTec, Ahrensburg, Germany) aggregometer at 37° C. stirring conditions. Maximum aggregation was assessed in percent in relation to re-calcified Hepes buffered Tyrode's solution as blank. For further molecular analysis platelets were lysed through addition of ice-cold 2× lysis buffer (NaCl150 mM, HEPES 15 mM, EGTA10 mM, Triton X-100 2%, Na3VO4 2 mM, PMSF 1 mM, Aprotinin A 1 mM, Leupeptin 1 mM, Pepstatin 1 mM).

Assay [3] has as its system platelets of Covid-19 patients.
Assay [4] concerns platelets of sepsis patients. The assay can be described thus: Platelet reactivity by flow cytometry in whole blood (PAC-1 binding, CD62P exposure). Particulars: sepsis patients vs healthy controls, day of ICU admission; CRP-XL 0.01 μg/mL, convulxin 0.01 μg/mL, ADP 5 μM.
Procedure: Platelet reactivity assays are shown at the following time points: I: admission day, II: day 5-7 and III: day of ICU discharge. (S)=sepsis patient; (HC)=healthy control. (A-H) Platelet integrin activation (A, C, E, G) and P-selectin exposure (B, D, F, H) were measured upon stimulation with CRP-XL [0.01 μg/mL](A-D), Convulxin [0.01 μg/ml] (E, F) and ADP [5 μM] (G, H) in whole blood by flow cytometry. […] (I-N) Maximum aggregation is depicted upon stimulation with CRP-XL [0.1 μg/mL] (I, J) rhodocytin [1 nM] (K, L) and TRAP-6 [10 μM] (M, N). […] Graphs show median±IQR. Differences were analyzed by Kruskal-Wallis test (A-N). n.s. non-significant, *p>0.05, **p>0.01, ***p>0.001, ****p>0.0001
Platelet reactivity of healthy controls (HC) and patients with sepsis (S) is depicted upon stimulation with CRP-XL standard dose [0.1 μg/mL in aggregometry; 0.01 μg/mL in flow cytometry] and CRP-XL high dose (CRP-XLhi) [1 μg/mL] (A-B) Platelet activation due to integrin activation indicated through PAC-1 binding (A) or P-selectin exposure (B) was assessed in whole blood by flow cytometry. (C-D) Light transmission aggregometry was performed using washed platelets [500 000 1/μL]. Samples were measured for 5 minutes. […] All graphs show median f IQR. […]
The test system of the next assay is washed platelets. The assay can be described thus: Immunoblot of global tyrosine phosphorylation (4G10) in platelet lysates. The settings on record: 0.1 μg/mL CRP-XL or 10 nM rhodocytin. The method, then: Washed platelets [500 000 1/μL] of healthy controls (HC) and patients (S) were stimulated with CRP-XL (C) and rhodocytin (R). Lysis was done at the following time points: C: 5 min, R: 10 min. I: admission day, II: day 5-7 and III: day of ICU discharge. (A-C) Western Blot analysis of platelet lysates. Staining was performed with anti-phospho-tyrosine antibody 4g10. 72 kDa band intensity was set in relation to signal intensity of Syk or GAPDH in arbitrary units (AU). Representative blots are shown in figures A (time point I) and B (time point III). (D-F) Phosphorylation of signaling peptides Syk and Lat was investigated by Western blot. One representative blot is shown in D. (G-J) Phosphorylation analysis of ITIM-signaling associated phosphatases SHP-1 and SHP-2. Phospho-protein intensity was set in relation to intensity of unphosphorylated protein shown in H and J. Representative Western blots are shown in G and I. All graphs display median f IQR.
After centrifugation of whole blood at 152 g for 20 min, platelet rich plasma (PRP) was separated and incubated in acetylsalicylic acid (ASS) for 30 min (final concentration 2 μM). Prostaglandine E1 (1 μM) and apyrase (2 U/mL) were added and platelets were washed with modified HEPES-buffered Tyrode's solution once (1000 g, 10 min). […] Maximum aggregation was assessed in percent in relation to re-calcified Hepes buffered Tyrode's solution as blank. […]
A general note: Immunoblotting shows a protein as a band on a membrane.

The values that follow come from patent US12699084B2, “Method and means for diagnosing a human sepsis” (Julius-Maximilans-Universität Würzburg, priority 2019, dated 2026).

Read-outs that look alike come from different tables or passages of the source.

As for `O=C(O)c1cn(C2CC2)c2cc(N3CCNCC3)c(F)cc2c1=O` [ciprofloxacin], the “impact on GPVI-mediated platelet reactivity (P-selectin exposure)” value (from here on “impact … (P-selectin exposure)”) in assay [1] is given as “none of these drugs had an impact on GPVI-mediated platelet reactivity”.

For the molecule TRAP-6, the “aggregation at last visit, discharged patients vs patients who died” value in assay [2] (sepsis patients) is “no differences”. In addition, the “aggregation potential, mean” value in assay [2] (sepsis platelets, day of ICU admission, 10 μM TRAP-6) came to 34.2%. In assay [2] (sepsis platelets, day of ICU admission, 10 μM TRAP-6, every studied patient), the “aggregation potential, minimum” value is not below 21.2%. Moreover, the “platelet reactivity upon stimulation” value in assay [3] is given as “global hyporeactivity”.

Consider `CN[C@H](CC(C)C)C(=O)N[C@H]1C(=O)N[C@@H](CC(N)=O)C(=O)N[C@H]2C(=O)N[C@H]3C(=O)N[C@H](C(=O)N[C@H](C(=O)O)c4cc(O)cc(O)c4-c4cc3ccc4O)[C@H](O)c3ccc(c(Cl)c3)Oc3cc2cc(c3O[C@@H]2O[C@H](CO)[C@@H](O)[C@H](O)[C@H]2O[C@H]2C[C@](C)(N)[C@H](O)[C@H](C)O2)Oc2ccc(cc2Cl)[C@H]1O` [vancomycin], for which the “impact … (P-selectin exposure)” value in assay [1] is given as “none of these drugs had an impact on GPVI-mediated platelet reactivity”.

`Nc1ncnc2c1ncn2[C@@H]1O[C@H](COP(=O)(O)OP(=O)(O)O)[C@@H](O)[C@H]1O` [ADP]: the “platelet reactivity upon stimulation” value in assay [3] (19 critically-ill Covid-19 patients, 14 days at ICU) is given as “global hyporeactivity”. In addition, the “platelet activation (PAC-1 binding, CD62P exposure) upon stimulation” value in assay [4] was “platelet reactivity was also highly impaired”.

As to `Cc1ncc([N+](=O)[O-])n1CCO` [metronidazole], the “impact … (P-selectin exposure)” value in assay [1] was “none of these drugs had an impact on GPVI-mediated platelet reactivity”.

For the molecule piperacillin/tazobactam, the “impact … (P-selectin exposure)” value in assay [1] is “none of these drugs had an impact on GPVI-mediated platelet reactivity”.

B1: convulxin (protein)
chain 1: GLHCPSDWYYYDQHCYRIFNEEMNWEDAEWFCTKQAKGAHLVSIKSAKEADFVAWMVTQNIEESFSHVSIGLRVQNKEKQCSTKWSDGSSVSYDNLLDLYITKCSLLKKETGFRKWFVASCIGKIPFVCKFPPQC
chain 2: GFCCPSHWSSYDRYCYKVFKQEMTWADAEKFCTQQHTGSHLVSFHSTEEVDFVVKMTHQSLKSTFFWIGANNIWNKCNWQWSDGTKPEYKEWHEEFECLISRTFDNQWLSAPCSDTYSFVCKFEA
As to B1, the “platelet activation (PAC-1 binding, CD62P exposure) upon stimulation” value in assay [4] was “impaired platelet activation was still evident, albeit to a lesser extent compared to CRP-XL”.

B2: rhodocytin: selective CLEC-2 agonist (protein)
chain 1: GLEDCDFGWSPYDQHCYQAFNEQKTWDEAEKFCRAQENGAHLASIESNGEADFVSWLISQKDELADEDYVWIGLRAQNKEQQCSSEWSDGSSVSYENLIDLHTKKCGALEKLTGFRKWVNYYCEQMHAFVCKLLPY
chain 2: DCPSGWSSYEGHCYKPFNEPKNWADAERFCKLQPKHSHLVSFQSAEEADFVVKLTRPRLKANLVWMGLSNIWHGCNWQWSDGARLNYKDWQEQSECLAFRGVHTEWLNMDCSSTCSFVCKFKA
B2: the “induction of tyrosine phosphorylation (pTyr bands)” value with washed platelets (platelets of healthy donors) was “readily inducible in healthy donors”; with washed platelets (platelets of sepsis patients) it was “tyrosine phosphorylation was not inducible in platelets of sepsis patients”. Moreover, the “platelet aggregation upon stimulation” value in assay [2] (sepsis patients vs healthy controls, time point I, CRP-XL 0.1 μg/ml, rhodocytin 10 nM) was “abolished aggregation was found in 5/8 patients”. Further, the “aggregation at last visit, discharged patients vs patients who died” value in assay [2] (sepsis patients) is given as “no differences”. The “maximum aggregation, recovery at discharge” value in assay [2] (sepsis patients, time point III (discharge from ICU), CRP-XL 0.1 μg/ml, rhodocytin) is “completely recovered”.
